We go through two molecules from PMC4979012, “Structural basis for cytokinin production by LOG from Corynebacterium glutamicum” (Scientific Reports, 2016).

In experiment [1] the target is T1, CgLOG (Cg2612) (Corynebacterium glutamicum, UniProt Q8NN34, S19A).
T1 construct: gene Cgl2379; full-length, C-terminal 6xHis (pET30a), E. coli BL21(DE3); dimer; residues 2-195 seen in crystal; active site at dimer interface
Kind of experiment: phosphoribohydrolase assay, TLC with UV detection of adenine. The experiment is classed as biochemical. The following applies: 20 mM AMP, 36 mM Tris-HCl pH 8.0, 30 °C, 23 μM enzyme.

The target of experiment [2] is T2, CgLOG (Cg2612) (Corynebacterium glutamicum, UniProt Q8NN34).
T2 construct: gene Cgl2379; full-length, C-terminal 6xHis (pET30a), E. coli BL21(DE3); dimer; residues 2-195 seen in crystal; active site at dimer interface
T2 sequence (Q8NN34 1-195): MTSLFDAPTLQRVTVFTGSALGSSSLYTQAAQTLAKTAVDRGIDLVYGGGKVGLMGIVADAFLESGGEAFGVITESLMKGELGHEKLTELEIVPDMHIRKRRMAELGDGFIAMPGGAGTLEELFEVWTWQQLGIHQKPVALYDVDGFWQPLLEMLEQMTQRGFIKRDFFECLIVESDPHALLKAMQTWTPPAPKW
The description is as above. The experiment is classed as biochemical. To be noted: 20 mM AMP, 36 mM Tris-HCl pH 8.0, 30 °C, 23 μM enzyme.

Experiment [3] has as its target LOG from Corynebacterium glutamicum ATCC 13032 (gene product of Cg2612) (Corynebacterium glutamicum ATCC 13032). As to the kind of experiment: SAXS; solution SAXS at 4 °C, CgLOG 0.5 ~ 4.5 mg/ml; molecular mass by the QR method.
Experiment [4] shares this target. Kind of experiment: SEC; analytical, Superdex 200 10/300, 150 mM NaCl, 300 μL of 3 mg/ml protein; molecular weight from a calibration curve of standards.

T1 sequence (Q8NN34 entry or part of it S19A): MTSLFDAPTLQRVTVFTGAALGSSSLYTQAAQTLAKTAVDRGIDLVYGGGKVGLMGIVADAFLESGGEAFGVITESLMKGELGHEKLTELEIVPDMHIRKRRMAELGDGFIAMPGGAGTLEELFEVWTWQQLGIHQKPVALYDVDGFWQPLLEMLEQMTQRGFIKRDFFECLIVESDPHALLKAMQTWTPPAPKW

As to `Nc1ncnc2c1ncn2[C@@H]1O[C@H](COP(=O)(O)O)[C@@H](O)[C@H]1O` [AMP], the “phosphoribohydrolase assay, TLC with UV detection of adenine” value at CgLOG (Cg2612) [1] is given as “One exception is S19A mutant which shows higher activity than the wild-type”; at CgLOG (Cg2612) [2], “we observed that Cg2612 has phosphoribohydrolase activity”.
Usually stoichiometry N stands for a count of units in the complex or per binding partner. As to “LOG from Corynebacterium glutamicum ATCC 13032 (gene product of Cg2612) (enzyme)”, the stoichiometry N in experiment [3] and in experiment [4] was 2 in each case.
